In PubChem BioAssay AID292 (DTP/NCI, 2004):
Several values for one entry are separate records, joined by “and”; a condition that tells them apart may be missing. Equal entries are not always repeated. Inconclusive results and toxic doses are left out. Rule for the calls: active = survival T/C of 150% or more; inactive = T/C below 125% in these data.

System: B6C3F1 mice, ip Sarcoma M5076, median survival T/C
Assay: NCI In Vivo Anticancer Drug Screen. Data for tumor model Sarcoma M5076 (intraperitoneal) in B6C3F1 mice
Conditions: endpoint: median survival time, higher = longer survival
Protocol: The antitumor activity of compounds was measured in mice bearing transplantable tumors. Survival or tumor size were measured and the results are expressed as the measurement made in the treated group (T) divided by the measurement made in the vehicle treated control group (C). The tumor model used in this assay is Sarcoma M5076 (intraperitoneal) in B6C3F1 mice

[1] = dose: 50.0 mg/kg/injection, schedule: Q04DX004 (ip), vehicle: saline with Tween-80
[2] = dose: 100.0 mg/kg/injection, schedule: Q04DX004 (ip), vehicle: saline with Tween-80
[3] = dose: 200.0 mg/kg/injection, schedule: Q04DX004 (ip), vehicle: saline with Tween-80
[4] = dose: 400.0 mg/kg/injection, schedule: Q04DX004 (ip), vehicle: saline with Tween-80
[5] = dose: 100.0 mg/kg/injection, schedule: Q04DX004 (ip), vehicle: Klucel (hydroxypropylcellulose) (HPC)
[6] = dose: 25.0 mg/kg/injection, schedule: Q04DX004 (ip), vehicle: saline
[7] = dose: 50.0 mg/kg/injection, schedule: Q04DX004 (ip), vehicle: saline
[8] = dose: 100.0 mg/kg/injection, schedule: Q04DX004 (ip), vehicle: suspension in saline
[9] = dose: 50.0 mg/kg/injection, schedule: Q04DX004 (ip), vehicle: Klucel (hydroxypropylcellulose) (HPC)
[10] = dose: 200.0 mg/kg/injection, schedule: Q04DX004 (ip), vehicle: Klucel (hydroxypropylcellulose) (HPC)
[11] = dose: 400.0 mg/kg/injection, schedule: Q04DX004 (ip), vehicle: Klucel (hydroxypropylcellulose) (HPC)
[12] = dose: 37.5 mg/kg/injection, schedule: Q04DX004 (ip), vehicle: saline with Tween-80
[13] = dose: 75.0 mg/kg/injection, schedule: Q04DX004 (ip), vehicle: saline with Tween-80

Measured: T/C

CN(C)CCN1C(=O)c2cccc3cc(N)cc(c23)C1=O
inactive: dose: 12.96 mg/kg/injection, schedule: Q04DX004 (ip), vehicle: acid diluted with saline 108 % of control and 117 % of control
active: dose: 21.6 mg/kg/injection, schedule: Q04DX004 (ip), vehicle: acid diluted with saline 159 % of control | dose: 36.0 mg/kg/injection, schedule: Q04DX004 (ip), vehicle: acid diluted with saline 158 % of control

N#CC(=C1C=CC(=NO)C=C1)c1ccc(Cl)cc1
inactive: dose: 600.0 mg/kg/injection, schedule: Q04DX004 (ip), vehicle: saline with Tween-80 96 % of control

C=CCCC(=O)CCCC(=O)O[C@@H]1[C@@H]2[C@H](CC1(C)C)[C@H](O)[C@@]13O[C@@H]1[C@H](O)[C@@]1(CO1)[C@@]23C
inactive: dose: 50.0 micrograms/kg/injection, schedule: Q04DX004 (ip), vehicle: Klucel (hydroxypropylcellulose) (HPC) 92 % of control | dose: 100.0 micrograms/kg/injection, schedule: Q04DX004 (ip), vehicle: Klucel (hydroxypropylcellulose) (HPC) 96 % of control | dose: 200.0 micrograms/kg/injection, schedule: Q04DX004 (ip), vehicle: Klucel (hydroxypropylcellulose) (HPC) 96 % of control | dose: 400.0 micrograms/kg/injection, schedule: Q04DX004 (ip), vehicle: Klucel (hydroxypropylcellulose) (HPC) 96 % of control | dose: 800.0 micrograms/kg/injection, schedule: Q04DX004 (ip), vehicle: Klucel (hydroxypropylcellulose) (HPC) 93 % of control

C[C@H](N)C(=O)N[C@@H]1[C@H]2C(=C(O)C[C@@H](O)[C@@H]2O)C(=O)O[C@]1(C)C(Cl)Cl
active: dose: 2.16 mg/kg/injection, schedule: Q04DX004 (ip), vehicle: saline 159 % of control | dose: 3.6 mg/kg/injection, schedule: Q04DX004 (ip), vehicle: saline 179 % of control | dose: 6.0 mg/kg/injection, schedule: Q04DX004 (ip), vehicle: saline 152 % of control and 164 % of control | dose: 10.0 mg/kg/injection, schedule: Q04DX004 (ip), vehicle: saline 235 % of control

C[n+]1c(-c2ccc(/C=N/NC(=O)c3ccc(C(=O)N/N=C/c4ccc(-c5cn6ccccc6[n+]5C)cc4)cc3)cc2)cn2ccccc21
inactive: [1] 104 % of control | [2] 98 % of control | [3] 108 % of control | [4] 115 % of control | dose: 800.0 mg/kg/injection, schedule: Q04DX004 (ip), vehicle: saline with Tween-80 112 % of control

COc1ccc(C(N)=O)cc1N=NN(C)C
inactive: dose: 12.5 mg/kg/injection, schedule: Q04DX004 (ip), vehicle: Klucel (hydroxypropylcellulose) (HPC) 118 % of control and 121 % of control
active: [5] 154 % of control and 179 % of control

C/C(=N\NC(=O)c1ccccc1O)c1cccc(/C(C)=N/NC(=O)c2ccccc2O)n1
inactive: [6] 88 % of control | dose: 25.0 mg/kg/injection, schedule: Q04DX004 (ip), vehicle: suspension in saline 108 % of control | [7] 88 % of control | [8] 116 % of control

COCCCNC1=C(C#N)C(=O)NC2(CCCC2)S1
inactive: [1] 97 % of control | [2] 97 % of control | [3] 97 % of control | [4] 90 % of control

COc1ccccc1-n1cc[n+](C)c1/C=N/O
inactive: [6] 101 % of control | [7] 101 % of control

Nc1ccc2ccc(NS(=O)(=O)N3CCCCC3)cc2c1
inactive: [1] 100 % of control | [2] 107 % of control | [3] 112 % of control | [4] 120 % of control

Cc1nc2cc[nH]n2c(=O)c1CCc1ccccc1
inactive: [1] 107 % of control | [2] 94 % of control | [3] 96 % of control

COc1cc(C2c3cc4c(cc3[C@@H](OC3OC5CO[C@@H](C)OC5C(O)C3O)[C@H]3COC(=O)C23)OCO4)cc(OC)c1OC (stereo not given in full)
inactive: [6] 116 % of control | [9] 118 % of control | [7] 110 % of control | dose: 50.0 mg/kg/injection, schedule: Q04DX004 (ip), vehicle: suspension in saline 103 % of control | dose: 100.0 mg/kg/injection, schedule: Q04DX004 (ip), vehicle: saline 122 % of control | [8] 99 % of control | dose: 200.0 mg/kg/injection, schedule: Q04DX004 (ip), vehicle: suspension in saline 123 % of control
active: [10] 171 % of control | dose: 300.0 mg/kg/injection, schedule: Q04DX004 (ip), vehicle: suspension in saline 168 % of control | [11] 233 % of control

O=C(O)CCCCCCCC(=O)O
inactive: dose: 75.0 mg/kg/injection, schedule: Q04DX004 (ip), vehicle: distilled water + Tween-80 111 % of control | dose: 150.0 mg/kg/injection, schedule: Q04DX004 (ip), vehicle: distilled water + Tween-80 99 % of control | dose: 300.0 mg/kg/injection, schedule: Q04DX004 (ip), vehicle: distilled water + Tween-80 93 % of control

O=c1c2ccccc2nc(-c2ccccc2)n1-c1nccs1
inactive: dose: 25.0 mg/kg/injection, schedule: Q04DX004 (ip), vehicle: saline with Tween-80 94 % of control | [3] 89 % of control | [4] 90 % of control

CNC(=O)/C=C/C1=CN2C(=O)c3ccc(C)c(O)c3NC(OC)C2C1 (stereo not given)
inactive: dose: 12.5 micrograms/kg/injection, schedule: Q04DX004 (ip), vehicle: saline 101 % of control and 108 % of control | dose: 25.0 micrograms/kg/injection, schedule: Q04DX004 (ip), vehicle: saline 104 % of control and 124 % of control | dose: 50.0 micrograms/kg/injection, schedule: Q04DX004 (ip), vehicle: saline 95 % of control and 108 % of control | dose: 100.0 micrograms/kg/injection, schedule: Q04DX004 (ip), vehicle: saline 98 % of control and 115 % of control | dose: 200.0 micrograms/kg/injection, schedule: Q04DX004 (ip), vehicle: saline 112 % of control

Cc1c(-c2ccc(-c3ccccc3F)cc2)nc2ccc(F)cc2c1C(=O)O
inactive: dose: 6.25 mg/kg/injection, schedule: Q01DX009 (ip), vehicle: water 124 % of control | dose: 12.5 mg/kg/injection, schedule: Q01DX009 (ip), vehicle: water 123 % of control | dose: 25.0 mg/kg/injection, schedule: Q01DX009 (ip), vehicle: water 124 % of control

N=C1C=CC2C(=Nc3ccccc3[N+]2=O)N1Cc1ccncc1 (stereo not given)
inactive: dose: 18.75 mg/kg/injection, schedule: Q04DX004 (ip), vehicle: saline with Tween-80 95 % of control | [12] 93 % of control | [13] 91 % of control | dose: 150.0 mg/kg/injection, schedule: Q04DX004 (ip), vehicle: saline with Tween-80 87 % of control | dose: 300.0 mg/kg/injection, schedule: Q04DX004 (ip), vehicle: saline with Tween-80 87 % of control

BrC[P+](CBr)(CBr)CBr
active: dose: 125.0 mg/kg/injection, schedule: Q04DX004 (ip), vehicle: saline with Tween-80 186 % of control
inactive: dose: 15.63 mg/kg/injection, schedule: Q04DX004 (ip), vehicle: saline with Tween-80 107 % of control and 115 % of control

C=C1C(O)C2(O)OCC34C(CC5C(C)=CC(=O)C(O)C5(C)C23)OC(=O)C(OC(=O)C/C=C(\C)CCCCC)C14 (stereo not given)
inactive: dose: 1.0 mg/kg/injection, schedule: Q04DX004 (ip), vehicle: saline + alcohol 105 % of control and 107 % of control | dose: 2.0 mg/kg/injection, schedule: Q04DX004 (ip), vehicle: saline + alcohol 104 % of control and 122 % of control | dose: 4.0 mg/kg/injection, schedule: Q04DX004 (ip), vehicle: saline + alcohol 102 % of control and 108 % of control

CCC1C(C#N)C(=O)NC(=O)C1C#N (stereo not given)
inactive: [9] 104 % of control | [5] 106 % of control | [10] 107 % of control | [11] 104 % of control | dose: 800.0 mg/kg/injection, schedule: Q04DX004 (ip), vehicle: Klucel (hydroxypropylcellulose) (HPC) 110 % of control

CCC/C=C/C=C/C(=O)OC1/C(=C/C(=O)OC)CC2CC(C(C)O)OC(=O)CC(O)CC3CC(OC(C)=O)C(C)(C)C(O)(CC4C/C(=C/C(=O)OC)CC(/C=C/C(C)(C)C1(O)O2)O4)O3 (stereo not given)
inactive: dose: 10.0 micrograms/kg/injection, schedule: Q01DX009 (ip), vehicle: saline 102 % of control | dose: 20.0 micrograms/kg/injection, schedule: Q01DX009 (ip), vehicle: saline 104 % of control | dose: 40.0 micrograms/kg/injection, schedule: Q01DX009 (ip), vehicle: saline 107 % of control | dose: 80.0 micrograms/kg/injection, schedule: Q01DX009 (ip), vehicle: saline 109 % of control

O=C1C2C3C=CC(C2C(=O)N1CO)C1C2C(=O)N(CO)C(=O)C2C31 (stereo not given)
inactive: dose: 12.5 mg/kg/injection, schedule: Q04DX004 (ip), vehicle: water 103 % of control | dose: 25.0 mg/kg/injection, schedule: Q04DX004 (ip), vehicle: water 103 % of control | dose: 50.0 mg/kg/injection, schedule: Q04DX004 (ip), vehicle: water 98 % of control

C=CCNc1nc2c(s1)c(C)c(O)c1ccccc12
inactive: [12] 98 % of control | [13] 88 % of control
